Source: US12383519B2, “Application of CaMK4 in preparation of medicine for preventing and treating psoriasis” (priority 2021, dated 2025)

Experiments:
[1] = tested on: IMQ-induced psoriasiform inflammation in mice; test: IMQ-induced mouse model of psoriasis, treatment with CaMK4 inhibitor KN-93; assay type: in vivo; conditions: KN-93 0.24 mg per mouse, tail vein, vs PBS control
Description: (§1) An internationally used mouse model of psoriasis was used: 6-8-week-old C57BL/6 mice were given 5% IMQ applied to the shaved back skin of the mice at 62.5 mg per day for 5 days. The 6-8-week-old C57BL/6 mice were used as controls.
(§2) 1) The back skin thickness, scaling and erythema development of mice were observed on days 0 -5 after applying IMQ to the shaved back skin of mice. According to the clinical psoriasis area and severity index, the severity of back skin was evaluated by thickness, scaling and erythema. The back skin thickness was measured with vernier calipers. Scaling and erythema were scored on a scale ranging from 0-4: 0 represents none; 1 represents mild; 2 represents moderate; 3 represents significant; and 4 represents very significant.
2) Skin sections were prepared for staining with H&E, and the skin sections were stained by using the conventional universal H&E staining method.
(§3) 3) Statistical analysis of epidermal thickness. Specifically, H&E-stained sections were photographed in a double-blind manner and then measured for epidermal thickness.
5) The mRNA levels of IMQ induced mouse skin pathogenic factors were detected by quantitative PCR. The method was the same as that in the example 1.
62.5 mg of IMQ were applied to the shaved back skin of wild-type mice for 5 days. KN-93 (0.24 mg per mouse) or PBS was injected into mice through tail vein one hour before IMQ application on day 0 and day 2. Samples were collected on day 5 for subsequent experiments.

[2] = tested on: IMQ-induced psoriasiform inflammation in mice; test: IMQ-induced mouse model of psoriasis, exogenous IL-10 injection; assay type: in vivo; conditions: IL-10 1 μg per mouse, tail vein, vs PBS control
Description: as §1, §2, §3
62.5 mg of IMQ were applied to the shaved back skin of wild-type (WT) mice for 5 days. IL-10 (1 μg per mouse) or PBS was injected into mice through tail vein on 1 h before IMQ application on day 0 and day 2. Samples were collected on day 5 for subsequent experiments.
1) The back skin thickness, scaling and erythema development of mice were observed on days 0 -5 after applying IMQ to the shaved back skin of mice, and scored. The method is the same as that in the example 2;
2) Statistical analysis of epidermal thickness was performed; the method is the same as that in the example 2.
3) The mRNA levels of IMQ induced mouse skin pathogenic factors were detected by quantitative PCR. The method was the same as that in the example 1.

| Molecule | scaling ([1]; day 0 and day 2) | skin thickness ([1]; day 0 and day 2) | psoriasiform phenotype ([1]; day 0 and day 2, IMQ 5 days) | epidermal thickness ([1]; H&E sections, day 5) | mRNA level of IL-10 in skin ([1]; day 5 skin) | proinflammatory cytokines (skin mRNA, quantitative PCR) ([1]; day 5 skin) | erythema ([2]; day 0 and day 2) | psoriasiform phenotype ([2]; day 0 and day 2) | scaling ([2]; day 0 and day 2) | skin thickness ([2]; day 0 and day 2) | epidermal thickness ([2]; day 5) | proinflammatory cytokines (skin mRNA, quantitative PCR) ([2]; day 5) |
| --- | --- | --- | --- | --- | --- | --- | --- | --- | --- | --- | --- | --- |
| COc1ccc(S(=O)(=O)N(CCO)c2ccccc2CN(C)C/C=C/c2ccc(Cl)cc2)cc1 [KN-93] | reduce | reduce | less than that of control mice | reduce | higher than that of control mice | reduce |  |  |  |  |  |  |
| IL-10: exogenous interleukin-10, central anti-inflammatory mediator, injected through tail vein (protein, UniProt P22301 19-178, looked up) Interleukin-10: SPGQGTQSENSCTHFPGNLPNMLRDLRDAFSRVKTFFQMKDQLDNLLLKESLLEDFKGYLGCQALSEMIQFYLEEVMPQAENQDPDIKAHVNSLGENLKTLRLRLRRCHRFLPCENKSKAVEQVKNAFNKLQEKGIYKAMSEFDIFINYIEAYMTMKIRN |  |  |  |  |  |  | reduced | attenuated | reduced | reduced | reduced | reduced |
